Data published in patent US20120316105A1, “Polymyxin Derivates Useful As Antibacterial Agents” (priority 2011, published 2012).
Where two headings read alike, the source gives them in different places. Bridge positions count the residues as written; N and C are the ends. Square brackets hold non-standard residues; d marks the D form. Peptide text beside a SMILES is read from it. * marks the point of attachment. Isonicotinoyl(2-Ph) = O=C(c1ccnc(-c2ccccc2)c1)*; X3 = O=C(c1ccnc(-c2cccc(Cl)c2)c1)*; X1 = CC[C@H](C)CCCCC(=O)*; dDap = NC[C@@H](N)C(=O)O; Dab = NCC[C@H](N)C(=O)O; Dap = NC[C@H](N)C(=O)O

How the values were obtained:
[1] = tested on: KP-3700, ESBL+ clinical isolate of Klebsiella pneumoniae; experiment: Minimum inhibitory concentration (MIC, CLSI), KP-3700; assay type: cell-based; settings: K. pneumoniae KP-3700; overnight incubation, lower of duplicate values; trifluoroacetate salt (Example 1 and PMB sulfate)
Protocol: (§1) Minimum bactericidal concentration (MBC, mg/L), minimum inhibitory concentration (MIC, mg/L), and human renal proximal tubule epithelial cell line cytotoxicity concentration 50% (hRPTEC, TC50, micromolar) for compounds of Formula I are listed in Table 2. The compounds of Formula I were tested as the corresponding trifluoroacetate salt except for Example 1 which was tested as the sulfate salt. For Table 2 below: PMB=polymyxin B as the sulfate salt (Bedford Laboratories, pharmaceutical grade); PMB1=polymyxin B1 as the trifluoroacetate salt; Nona=polymyxin B nonapeptide as the trifluoroacetate salt. PMB1 and Nona were prepared using the solid phase methodology described in the experimental section herein.
(§2) The in vitro antibacterial activity of compounds of Formula I was evaluated by MIC testing according to Clinical and Laboratory Standards Institute (CLSI). See: Clinical and Laboratory Standards Institute. Methods for Dilution Antimicrobial Susceptibility Tests for Bacteria that Grow Aerobically; Approved Standard-Eighth Edition. CLSI document M7-A8 [ISBN 1-56238-689-1]. Clinical and Laboratory Standards Institute, 940 West Valley Road, Suite 1400, Wayne, Pa. 19087-1898 USA, 2006; also Clinical and Laboratory Standards Institute. Performance Standards for Antimicrobial Susceptibility Testing; Twentieth Informational Supplement. CLSI document M100-S20 [ISBN 1-56238-716-2]. Clinical and Laboratory Standards Institute. Methods for Determining Bactericidal Activity of Antimicrobial Agents; Approved Guideline. CLSI document M26-A (ISBN 1-56238-384-1). CLSI, 940 West Valley Road, Suite 1400, Wayne, Pa. 19087-1898 USA, 1999.
(§3) The MIC determination is a standard laboratory method for evaluating the antibacterial activity of a compound. The MIC represents the lowest drug concentration that inhibits visible growth of bacteria following overnight incubation. […] Typically, the drug concentration range is broken down into 2-fold increments (e.g. 0.06 mg/L, 0.12 mg/L, 0.25 mg/L, 0.50 mg/L, 1.0 mg/L, etc.) and the various drug concentrations are all individually incubated overnight with approximately the same number of bacteria. The MIC is then determined by visually inspecting the drug effect at each concentration, and identifying the lowest drug concentration that has inhibited bacterial growth as compared to the drug free control. Typically, bacteria continue to grow at drug concentrations lower than the MIC and don't grow at concentrations at and above the MIC.
(§4) The MIC values described in Table 2 below were derived from assays wherein each test compound was evaluated in duplicate. In cases where the duplicate values varied by 0-2-fold, the lower of the two values was reported below. Generally speaking, if the duplicate values varied by more than 2-fold, the assay was considered non-valid and was repeated until the variation between duplicate runs was ≦2-fold. In line with the CLSI guidelines referred to above, both control organisms and reference compounds were utilized in each MIC assay to provide proper quality control. MIC values generated with these control organisms and reference compounds were required to fall within a defined range for the assay to be considered valid and be included herein. Those skilled in the art will recognize that MIC values can and do vary from experiment to experiment. Generally speaking, it should be recognized that MIC values often vary +/−2-fold from experiment to experiment. While a single MIC is reported for each compound and each microorganism, the reader should not conclude that each compound was only tested once. Several of the compounds were subjected to multiple tests. The data reported in Table 2 is reflective of the compounds relative activity and different MICs may have been generated on these occasions in line with the guidelines described above.
The following bacterial strains were used in these MIC determinations:
KP-3700 is an ESBL+clinical isolate of Klebsiella pneumoniae obtained in 2006; and […]

[2] = tested on: KP-5016, ESBL+ clinical isolate of Klebsiella pneumoniae (SHV-5); experiment: Minimum inhibitory concentration (MIC, CLSI), KP-5016; assay type: cell-based; settings: K. pneumoniae KP-5016; overnight incubation, lower of duplicate values; trifluoroacetate salt (Example 1 and PMB sulfate)
Protocol: as §1, §2, §3, §4
The following bacterial strains were used in these MIC determinations: […]

[3] = tested on: PA-1646, polymyxin-resistant clinical isolate of Pseudomonas aeruginosa; assay type: cell-based
Method in brief: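 Broth dilution MIC per CLSI with 2-fold concentration steps, read visually after overnight incubation as lowest concentration inhibiting growth; duplicates within 2-fold, lower value reported, with QC strains and reference compounds. Compounds tested as trifluoroacetate salts, polymyxin B as sulfate.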

[4] = tested on: AB-3167, clinical isolate of Acinetobacter baumannii; assay type: cell-based
Method in brief: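 Broth dilution MIC per CLSI (M7-A8, M100-S20, M26-A for bactericidal), 2-fold dilution series, overnight incubation, visual read of lowest concentration inhibiting growth versus drug-free control. Duplicates run; lower value reported if within 2-fold, otherwise repeated. Compounds tested as trifluoroacetate salts; QC strains and reference compounds required in range.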

[5] = tested on: Pseudomonas aeruginosa strain PA01; assay type: cell-based
Method in brief: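 CLSI broth dilution against P. aeruginosa PA01 with two-fold concentration steps and overnight incubation; MIC is lowest concentration visibly inhibiting growth versus drug-free control, in mg/L. Compounds tested as trifluoroacetate salts, in duplicate, lower value reported if within 2-fold; control organisms and reference compounds included.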

[6] = tested on: AB-1649, polymyxin-resistant clinical isolate of Acinetobacter baumannii; assay type: cell-based
Method in brief: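 Broth dilution MIC per CLSI against the polymyxin-resistant A. baumannii isolate, 2-fold dilutions, overnight incubation, visual read of lowest concentration inhibiting growth. Run in duplicate, lower value reported when within 2-fold; MBC per CLSI M26-A guideline.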

[7] = Cytotoxicity assay (LDH release), hRPTEC; assay type: cell-based, human; settings: for CC50 at 24 h: human
Method in brief: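 hRPTEC grown 72 h in REGM, then exposed to compounds at 100, 67, 44, 30, 20 and 13 micromolar for 24 h at 37° C, 5% CO2. LDH released into supernatant measured; TC50 (micromolar) derived. Compounds tested as trifluoroacetate salts unless otherwise noted.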

[8] = tested on: EC-1, mouse virulent strain of Escherichia coli; assay type: cell-based; settings: E. coli EC-1; overnight incubation, lower of duplicate values; trifluoroacetate salt (Example 1 and PMB sulfate)
Method in brief: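 Broth dilution per CLSI with 2-fold concentration steps and overnight incubation. MIC is the lowest concentration visibly inhibiting growth versus drug-free control, run in duplicate with the lower value reported. Duplicates differing by >2-fold were repeated, and control strains and reference compounds had to fall within range.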

[9] = tested on: PA-1646, polymyxin-resistant clinical isolate of Pseudomonas aeruginosa; assay type: cell-based; remark: listed apart in the source
Method in brief: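 Broth dilution MIC and bactericidal (MBC) testing per CLSI methods (M7-A8, M100-S20, M26-A) against polymyxin-resistant clinical P. aeruginosa isolate PA-1646. Compounds tested as trifluoroacetate salts, one as sulfate salt; values in mg/L.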

[10] = tested on: AB-1649, polymyxin-resistant clinical isolate of Acinetobacter baumannii; assay type: cell-based; remark: listed apart in the source
Method in brief: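 MIC and MBC were measured by CLSI broth dilution methods (M7-A8, M100-S20, M26-A) against a polymyxin-resistant clinical isolate and reported in mg/L. Compounds were tested as trifluoroacetate salts, with one exception tested as the sulfate.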

[11] = PA-1646, polymyxin-resistant clinical isolate of
[12] = AB-1649, polymyxin-resistant clinical isolate of
[13] = A. baumannii AB-3167, overnight incubation, lower of duplicate values, trifluoroacetate salt (Example 1 and PMB sulfate)

Row | SMILES | KP-3700 MIC [1] [mg/L] | KP-5016 MIC [2] [mg/L] | PA-1646 MIC [3, 11] [mg/L] | AB-3167 MIC ([4]; AB-3167, clinical isolate of) [mg/L] | PA01 MIC ([5]; strain) [mg/L] | AB-1649 MIC [6, 12] [mg/L] | CC50 at 24 h [7] [µM] | EC-1 MIC [8] [mg/L] | PA-1646 MBC [9, 11] [mg/L] | AB-1649 MBC [10, 12] [mg/L] | AB-3167 MIC [4, 13] [mg/L] | CC50 [7] [µM] | PA-1646 MBC ([9]; P. aeruginosa PA-1646, tested as trifluoroacetate salt (Example 1 and PMB as sulfate salt)) [mg/L] | PA-1646 MIC ([3]; P. aeruginosa PA-1646, overnight incubation, lower of duplicate values, trifluoroacetate salt (Example 1 and PMB sulfate)) [mg/L] | PA01 MIC ([5]; P. aeruginosa PA01, overnight incubation, lower of duplicate values, trifluoroacetate salt (Example 1 and PMB sulfate)) [mg/L] | AB-1649 MIC ([6]; A. baumannii AB-1649, overnight incubation, lower of duplicate values, trifluoroacetate salt (Example 1 and PMB sulfate)) [mg/L] | AB-1649 MBC ([10]; A. baumannii AB-1649, tested as trifluoroacetate salt (Example 1 and PMB as sulfate salt)) [mg/L] | CC50 at 24 h ([7]; hRPTEC, 24 hours treatment, LDH release, Toxic Concentration 50%, read-out: hRPTEC TC50) [µM]
1 | CC(C)C[C@@H]1NC(=O)[C@@H](Cc2ccccc2)NC(=O)[C@H](CCN)NC(=O)[C@@H](NC(=O)[C@H](CN)NC(=O)[C@H](CO)NC(=O)[C@H](CCN)NC(=O)c2ccnc(-c3ccccc3)c2)CCNC(=O)[C@H]([C@@H](C)O)NC(=O)[C@H](CCN)NC(=O)[C@H](CCN)NC1=O [Example 46] ({Isonicotinoyl(2-Ph)}-[Dab]S[Dap][Dab][Dab][dF]L[Dab][Dab]T; lactam 4-C) | 0.5 | 64 | 64 | 1 | 0.5 | 4 | 98 | 0.25 | – | – | – | – | – | – | – | – | – | –
2 | CC(C)C[C@@H]1NC(=O)[C@@H](Cc2ccccc2)NC(=O)[C@H](CCN)NC(=O)[C@@H](NC(=O)[C@@H](CN)NC(=O)[C@@H](NC(=O)[C@H](CCN)NC(=O)c2ccnc(-c3ccccc3)c2)[C@@H](C)O)CCNC(=O)[C@H]([C@@H](C)O)NC(=O)[C@H](CCN)NC(=O)[C@H](CCN)NC1=O [Example 47] ({Isonicotinoyl(2-Ph)}-[Dab]T[dDap][Dab][Dab][dF]L[Dab][Dab]T; lactam 4-C) | 0.25 | 8 | 1 | 0.5 | 0.5 | 4 | 100 | 0.25 | 2 | 4 | – | – | – | – | – | – | – | –
3 | CC[C@H](C)[C@@H]1NC(=O)[C@@H](Cc2ccccc2)NC(=O)[C@H](CCN)NC(=O)[C@@H](NC(=O)[C@H](CN)NC(=O)[C@@H](NC(=O)[C@H](CCN)NC(=O)c2ccnc(-c3cccc(Cl)c3)c2)[C@@H](C)O)CCNC(=O)[C@H]([C@@H](C)O)NC(=O)[C@H](CCN)NC(=O)[C@H](CCN)NC1=O [Example 48] (X3-[Dab]T[Dap][Dab][Dab][dF]I[Dab][Dab]T; lactam 4-C) | 0.25 | 32 | 1 | 0.25 | 0.5 | 0.5 | 33 | 0.25 | 2 | 0.5 | – | – | – | – | – | – | – | –
4 | CC[C@H](C)[C@@H]1NC(=O)[C@@H](Cc2ccccc2)NC(=O)[C@H](CCN)NC(=O)[C@@H](NC(=O)[C@H](CN)NC(=O)[C@@H](NC(=O)[C@H](CCN)NC(=O)c2ccnc(-c3ccccc3)c2)[C@@H](C)O)CCNC(=O)[C@H]([C@@H](C)O)NC(=O)[C@H](CCN)NC(=O)[C@H](CCN)NC1=O [Example 49] ({Isonicotinoyl(2-Ph)}-[Dab]T[Dap][Dab][Dab][dF]I[Dab][Dab]T; lactam 4-C) | 0.25 | 16 | 4 | – | 0.5 | 0.25 | > 100 | 0.125 | 8 | 0.25 | 0.125 | – | – | – | – | – | – | –
5 | CC(C)C[C@@H]1NC(=O)[C@@H](Cc2ccccc2)NC(=O)[C@H](CCN)NC(=O)[C@@H](NC(=O)[C@H](CCN)NC(=O)[C@@H](N)[C@@H](C)O)CCNC(=O)[C@H]([C@@H](C)O)NC(=O)[C@H](CCN)NC(=O)[C@H](CCN)NC1=O [Nona, polymyxin B nonapeptide, reference compound] (H-T[Dab][Dab][Dab][dF]L[Dab][Dab]T; lactam 3-C (inferred)) | >64 | >64 | >64 | >64 | >64 | >64 | – | >64 | >64 | >64 | – | > 100 | – | – | – | – | – | –
6 | CC[C@H](C)CCCCC(=O)N[C@@H](CCN)C(=O)N[C@H](C(=O)N[C@@H](CCN)C(=O)N[C@H]1CCNC(=O)[C@H]([C@@H](C)O)NC(=O)[C@H](CCN)NC(=O)[C@H](CCN)NC(=O)[C@H](CC(C)C)NC(=O)[C@@H](Cc2ccccc2)NC(=O)[C@H](CCN)NC1=O)[C@@H](C)O [PMB1, polymyxin B1, reference compound] (X1-[Dab]T[Dab][Dab][Dab][dF]L[Dab][Dab]T; lactam 4-C) | 0.5 | 16 | – | – | – | – | – | 0.125 | – | – | 0.25 | – | 16 | 4 | 0.5 | 4 | 4 | 28
